The values below are quoted from earlier work in patent publication US6476042B1, “Combination therapy for the treatment of migraine” (Pfizer Inc., priority 1999, dated 2002).

For the series, the system named is carotid vascular resistance. As to conditions: anaesthetized dog.

In the case of `CNS(=O)(=O)Cc1ccc2[nH]cc(CCN(C)C)c2c1` [Sumatriptan, sumatriptan], the “effect on carotid vascular resistance” value was “selective increase”.
